Results published in patent US11325906B2, “Chemical compounds” (AstraZeneca AB, priority 2019, dated 2022).

Tests used:
BRCA2 (−/−) DLD1 cells = assay: PARP proliferation assay (4 day compound dosing), BRCA2 (−/−) DLD1; format: cell-based; conditions: Homo sapiens, 96 h, BRCA2 −/− DLD-1 cells, read-out: BRCA2 −/− DLD-1 prolif 4 d IC50
DLD1 cells = assay: PARP proliferation assay (4 day compound dosing), WT DLD1; format: cell-based; conditions: Homo sapiens, 96 h, WT DLD-1 cells, read-out: WT DLD-1 prolif 4 d IC50

IC50 (BRCA2 (−/−) DLD1 cells): 4 nM
IC50 (DLD1 cells): > 30000 nM
SMILES: CCc1cc2ncc(CN3CCN(c4ccc(C(=O)NC)nc4C)CC3)cc2[nH]c1=O [Example 31, 5-[4-[(7-ethyl-6-oxo-5H-1,5-naphthyridin-3-yl)methyl]piperazin-1-yl]-N,6-dimethyl-pyridine-2-carboxamide]
